PubChem BioAssay (NCI)
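Step 1: Grow cells in 96-well plates. Step 2: Expose to compound for 48 hours at 5 concentrations. Step 3: Interpolate endpoints linearly; if unreached, use highest concentration. GI50 = concentration required for 50% inhibition of growth. TGI denotes the concentration required for complete inhibition of growth.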

Columns and labels:
Test in all cases: NCI-60 cell line screen, 48 h
HOP-62 NSCLC = test system: HOP-62 NSCLC
A498 renal = test system: A498 renal
SN12C renal = test system: SN12C renal
IGROV1 ovarian = test system: IGROV1 ovarian
ACHN renal = test system: ACHN renal
SK-OV-3 ovarian = test system: SK-OV-3 ovarian
NCI-H460 lung = test system: NCI-H460 lung
RXF 393 renal = test system: RXF 393 renal
OVCAR-5 ovarian = test system: OVCAR-5 ovarian
TK-10 renal = test system: TK-10 renal
U251 CNS = test system: U251 CNS
XF 498 CNS = test system: XF 498 CNS
COLO 205 colon = test system: COLO 205 colon
SNB-19 CNS = test system: SNB-19 CNS
HT29 colon = test system: HT29 colon
EKVX NSCLC = test system: EKVX NSCLC
SK-MEL-2 melanoma = test system: SK-MEL-2 melanoma
LXFL 529 NSCLC = test system: LXFL 529 NSCLC
HOP-18 NSCLC = test system: HOP-18 NSCLC
MALME-3M melanoma = test system: MALME-3M melanoma
HL-60(TB) leukemia = test system: HL-60(TB) leukemia
SK-MEL-5 melanoma = test system: SK-MEL-5 melanoma
MOLT-4 leukemia = test system: MOLT-4 leukemia
KM12 colon = test system: KM12 colon
HCC-2998 colon = test system: HCC-2998 colon
OVCAR-4 ovarian = test system: OVCAR-4 ovarian
UACC-62 melanoma = test system: UACC-62 melanoma
786-0 renal = test system: 786-0 renal
OVCAR-3 ovarian = test system: OVCAR-3 ovarian
DLD-1 colon = test system: DLD-1 colon
RPMI-8226 leukemia = test system: RPMI-8226 leukemia
NCI-H23 lung = test system: NCI-H23 lung
HCT-15 colon = test system: HCT-15 colon
SF-268 CNS = test system: SF-268 CNS
SW-620 colon = test system: SW-620 colon
UACC-257 melanoma = test system: UACC-257 melanoma
A549 NSCLC = test system: A549 NSCLC
UO-31 renal = test system: UO-31 renal
SK-MEL-28 melanoma = test system: SK-MEL-28 melanoma
LOX IMVI melanoma = test system: LOX IMVI melanoma
OVCAR-8 ovarian = test system: OVCAR-8 ovarian
SF-295 CNS = test system: SF-295 CNS
SNB-75 CNS = test system: SNB-75 CNS
HOP-92 NSCLC = test system: HOP-92 NSCLC
CCRF-CEM leukemia = test system: CCRF-CEM leukemia
CAKI-1 renal = test system: CAKI-1 renal
NCI-H522 lung = test system: NCI-H522 lung
M14 melanoma = test system: M14 melanoma
K-562 leukemia = test system: K-562 leukemia
SF-539 CNS = test system: SF-539 CNS
DMS 273 small cell lung = test system: DMS 273 small cell lung
KM20L2 colon = test system: KM20L2 colon
NCI-H226 lung = test system: NCI-H226 lung
M19-MEL melanoma = test system: M19-MEL melanoma
DMS 114 small cell lung = test system: DMS 114 small cell lung
SR leukemia = test system: SR leukemia
HCT-116 colon = test system: HCT-116 colon

SMILES: NC1CCCCC1N.O=NN1CCCCCC1(P(=O)([O-])[O-])P(=O)([O-])[O-].[Na+].[Pt+2]
- GI50 (HOP-62 NSCLC): > 100 µM
- TGI (HOP-62 NSCLC): > 100 µM
- GI50 (A498 renal): > 100 µM
- TGI (A498 renal): > 100 µM
- GI50 (SN12C renal): > 100 µM
- TGI (SN12C renal): > 100 µM
- GI50 (IGROV1 ovarian): > 100 µM
- TGI (IGROV1 ovarian): > 100 µM
- GI50 (ACHN renal): > 100 µM
- TGI (ACHN renal): > 100 µM
- GI50 (SK-OV-3 ovarian): > 100 µM
- TGI (SK-OV-3 ovarian): > 100 µM
- GI50 (NCI-H460 lung): > 100 µM
- TGI (NCI-H460 lung): > 100 µM
- GI50 (RXF 393 renal): > 100 µM
- TGI (RXF 393 renal): > 100 µM
- GI50 (OVCAR-5 ovarian): > 100 µM
- TGI (OVCAR-5 ovarian): > 100 µM
- GI50 (TK-10 renal): > 100 µM
- TGI (TK-10 renal): > 100 µM
- GI50 (U251 CNS): > 100 µM
- TGI (U251 CNS): > 100 µM
- GI50 (XF 498 CNS): > 100 µM
- TGI (XF 498 CNS): > 100 µM
- GI50 (COLO 205 colon): > 100 µM
- TGI (COLO 205 colon): > 100 µM
- GI50 (SNB-19 CNS): > 100 µM
- TGI (SNB-19 CNS): > 100 µM
- GI50 (HT29 colon): > 100 µM
- TGI (HT29 colon): > 100 µM
- GI50 (EKVX NSCLC): > 100 µM
- TGI (EKVX NSCLC): > 100 µM
- GI50 (SK-MEL-2 melanoma): > 100 µM
- TGI (SK-MEL-2 melanoma): > 100 µM
- GI50 (LXFL 529 NSCLC): > 100 µM
- TGI (LXFL 529 NSCLC): > 100 µM
- GI50 (HOP-18 NSCLC): > 100 µM
- TGI (HOP-18 NSCLC): > 100 µM
- GI50 (MALME-3M melanoma): > 100 µM
- TGI (MALME-3M melanoma): > 100 µM
- GI50 (HL-60(TB) leukemia): > 100 µM
- TGI (HL-60(TB) leukemia): > 100 µM
- GI50 (SK-MEL-5 melanoma): > 100 µM
- TGI (SK-MEL-5 melanoma): > 100 µM
- GI50 (MOLT-4 leukemia): > 100 µM
- TGI (MOLT-4 leukemia): > 100 µM
- GI50 (KM12 colon): > 100 µM
- TGI (KM12 colon): > 100 µM
- GI50 (HCC-2998 colon): > 100 µM
- TGI (HCC-2998 colon): > 100 µM
- GI50 (OVCAR-4 ovarian): > 100 µM
- TGI (OVCAR-4 ovarian): > 100 µM
- GI50 (UACC-62 melanoma): > 100 µM
- TGI (UACC-62 melanoma): > 100 µM
- GI50 (786-0 renal): > 100 µM
- TGI (786-0 renal): > 100 µM
- GI50 (OVCAR-3 ovarian): > 100 µM
- TGI (OVCAR-3 ovarian): > 100 µM
- GI50 (DLD-1 colon): > 100 µM
- TGI (DLD-1 colon): > 100 µM
- GI50 (RPMI-8226 leukemia): > 100 µM
- TGI (RPMI-8226 leukemia): > 100 µM
- GI50 (NCI-H23 lung): > 100 µM
- TGI (NCI-H23 lung): > 100 µM
- GI50 (HCT-15 colon): > 100 µM
- TGI (HCT-15 colon): > 100 µM
- GI50 (SF-268 CNS): > 100 µM
- TGI (SF-268 CNS): > 100 µM
- GI50 (SW-620 colon): > 100 µM
- TGI (SW-620 colon): > 100 µM
- GI50 (UACC-257 melanoma): > 100 µM
- TGI (UACC-257 melanoma): > 100 µM
- GI50 (A549 NSCLC): > 100 µM
- TGI (A549 NSCLC): > 100 µM
- GI50 (UO-31 renal): > 100 µM
- TGI (UO-31 renal): > 100 µM
- GI50 (SK-MEL-28 melanoma): > 100 µM
- TGI (SK-MEL-28 melanoma): > 100 µM
- GI50 (LOX IMVI melanoma): > 100 µM
- TGI (LOX IMVI melanoma): > 100 µM
- GI50 (OVCAR-8 ovarian): > 100 µM
- TGI (OVCAR-8 ovarian): > 100 µM
- GI50 (SF-295 CNS): > 100 µM
- TGI (SF-295 CNS): > 100 µM
- GI50 (SNB-75 CNS): 96.9 µM
- TGI (SNB-75 CNS): > 100 µM
- GI50 (HOP-92 NSCLC): > 100 µM
- TGI (HOP-92 NSCLC): > 100 µM
- GI50 (CCRF-CEM leukemia): > 100 µM
- TGI (CCRF-CEM leukemia): > 100 µM
- GI50 (CAKI-1 renal): > 100 µM
- TGI (CAKI-1 renal): > 100 µM
- GI50 (NCI-H522 lung): > 100 µM
- TGI (NCI-H522 lung): > 100 µM
- GI50 (M14 melanoma): > 100 µM
- TGI (M14 melanoma): > 100 µM
- GI50 (K-562 leukemia): > 100 µM
- TGI (K-562 leukemia): > 100 µM
- GI50 (SF-539 CNS): > 100 µM
- TGI (SF-539 CNS): > 100 µM
- GI50 (DMS 273 small cell lung): > 100 µM
- TGI (DMS 273 small cell lung): > 100 µM
- GI50 (KM20L2 colon): > 100 µM
- TGI (KM20L2 colon): > 100 µM

SMILES: COc1ccc2c3c([nH]c2c1CC=C(C)C)C(=O)C=C(C)C3=O
- TGI (HOP-62 NSCLC): > 25 µM
- TGI (SN12C renal): > 25 µM
- TGI (IGROV1 ovarian): > 25 µM
- TGI (ACHN renal): > 25 µM
- TGI (SK-OV-3 ovarian): > 25 µM
- TGI (NCI-H460 lung): > 25 µM
- TGI (RXF 393 renal): > 25 µM
- TGI (OVCAR-5 ovarian): > 25 µM
- TGI (TK-10 renal): > 25 µM
- TGI (U251 CNS): > 25 µM
- TGI (XF 498 CNS): > 25 µM
- TGI (COLO 205 colon): > 25 µM
- TGI (SNB-19 CNS): > 25 µM
- TGI (HT29 colon): > 25 µM
- TGI (NCI-H226 lung): > 25 µM
- TGI (EKVX NSCLC): > 25 µM
- TGI (SK-MEL-2 melanoma): > 25 µM
- TGI (LXFL 529 NSCLC): > 25 µM
- TGI (HOP-18 NSCLC): > 25 µM
- TGI (MALME-3M melanoma): > 25 µM
- TGI (HL-60(TB) leukemia): > 25 µM
- TGI (SK-MEL-5 melanoma): > 25 µM
- TGI (MOLT-4 leukemia): > 25 µM
- TGI (KM12 colon): > 25 µM
- TGI (HCC-2998 colon): > 25 µM
- TGI (OVCAR-4 ovarian): > 25 µM
- TGI (M19-MEL melanoma): > 25 µM
- TGI (UACC-62 melanoma): > 25 µM
- TGI (786-0 renal): > 25 µM
- TGI (OVCAR-3 ovarian): > 25 µM
- TGI (DLD-1 colon): > 25 µM
- TGI (RPMI-8226 leukemia): > 25 µM
- TGI (DMS 114 small cell lung): > 25 µM
- TGI (NCI-H23 lung): > 25 µM
- TGI (HCT-15 colon): > 25 µM
- TGI (SF-268 CNS): > 25 µM
- TGI (SW-620 colon): > 25 µM
- TGI (UACC-257 melanoma): > 25 µM
- TGI (A549 NSCLC): > 25 µM
- TGI (UO-31 renal): > 25 µM
- TGI (SK-MEL-28 melanoma): > 25 µM
- TGI (OVCAR-8 ovarian): > 25 µM
- TGI (SF-295 CNS): > 25 µM
- TGI (SNB-75 CNS): > 25 µM
- TGI (SR leukemia): > 25 µM
- TGI (HOP-92 NSCLC): > 25 µM
- TGI (HCT-116 colon): > 25 µM
- TGI (CCRF-CEM leukemia): > 25 µM
- TGI (CAKI-1 renal): > 25 µM
- TGI (NCI-H522 lung): > 25 µM
- TGI (M14 melanoma): > 25 µM
- TGI (K-562 leukemia): > 25 µM
- TGI (SF-539 CNS): > 25 µM
- TGI (DMS 273 small cell lung): > 25 µM
- TGI (KM20L2 colon): > 25 µM
